{"source": "patent US20240116951A1", "about": "“HETEROCYCLIC COMPOUNDS AND USES THEREOF” (Kumquat Biosciences Inc., priority 2022, published 2024)", "format_in_all_cases": "binding", "key": {"KRAS G12S": {"target": "T1, KRAS G12S (Homo sapiens, UniProt P01116, G12S)", "T1 construct": "made in house; host or cells: E. coli, e.g. BL21 (DE3)", "T1 sequence (P01116 1-188 isoform P01116-2 G12S)": "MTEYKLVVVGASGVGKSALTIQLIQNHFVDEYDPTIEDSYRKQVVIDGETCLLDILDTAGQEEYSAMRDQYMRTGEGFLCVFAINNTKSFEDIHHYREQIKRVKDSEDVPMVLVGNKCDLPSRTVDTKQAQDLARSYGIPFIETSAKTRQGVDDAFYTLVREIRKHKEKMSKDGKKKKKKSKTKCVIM", "assay": "HTRF assay of K-Ras G12S interaction with SOS1 (PPI-HTRF)", "details": "5 nM KRAS G12S, read-out: PPI-HTRF-5 nM KRAS G12S", "outline": "(§1)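 GST-KRas + antiGST-Eu(K); His-hSOS1 + anti-6His-XL665. Buffer ~5 mM HEPES pH 7.4/150 mM NaCl/1 mM DTT/0.05% BSA/0.0025% Igepal. Cpd in DMSO, duplicates 10–0.01 μM; ≥10 min incubation, HTRF 620/665 nm, IC50 from ratio.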"}, "KRAS G12D": {"target": "T2, KRAS G12D (Homo sapiens, UniProt P01116, G12D)", "T2 construct": "made in house; host or cells: E. coli, e.g. BL21 (DE3)", "T2 sequence (P01116 1-188 isoform P01116-2 G12D)": "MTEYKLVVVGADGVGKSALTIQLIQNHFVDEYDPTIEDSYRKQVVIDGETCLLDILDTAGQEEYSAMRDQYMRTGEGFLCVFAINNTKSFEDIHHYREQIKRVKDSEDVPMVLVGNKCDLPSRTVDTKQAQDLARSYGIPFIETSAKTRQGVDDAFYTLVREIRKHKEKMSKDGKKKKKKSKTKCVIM", "assay": "HTRF assay of K-Ras G12D interaction with SOS1 (PPI-HTRF)", "details": "HTRF, 5 nM KRAS G12D; read-out: PPI-HTRF-5 nM KRAS G12D", "outline": "as §1"}, "KRAS WT": {"target": "T3, KRAS WT (Homo sapiens, UniProt P01116)", "T3 construct": "made in house; host or cells: E. coli, e.g. BL21 (DE3)", "T3 sequence (P01116 1-188 isoform P01116-2)": "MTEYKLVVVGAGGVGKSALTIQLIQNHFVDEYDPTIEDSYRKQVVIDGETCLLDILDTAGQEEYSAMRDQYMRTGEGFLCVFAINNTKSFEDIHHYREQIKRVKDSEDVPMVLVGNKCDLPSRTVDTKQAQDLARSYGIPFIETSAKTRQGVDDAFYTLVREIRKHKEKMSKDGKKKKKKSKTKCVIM", "assay": "HTRF assay of wildtype K-Ras interaction with SOS1 (PPI-HTRF)", "details": "HTRF, 5 nM KRAS WT; read-out: PPI-HTRF-5 nM KRAS WT", "outline": "as §1"}}, "note": "pIC50: −log10 of the molar value.", "data": [{"smiles": "N#Cc1c(N)sc2c(F)ccc(-c3c(Cl)cc4c(N5CC6(CCN6C(=O)n6cncn6)C5)nc(OC[C@@]56CCCN5C[C@H](F)C6)nc4c3F)c12", "note": "[Compound 238, 4-(4-(1-(1H-1,2,4-triazole-1-carbonyl)-1,6-diazaspiro[3.3]heptan-6-yl)-6-chloro-8-fluoro-2-(((2R,7aS)-2-fluorotetrahydro-1H-pyrrolizin-7a(5H)-yl)methoxy)quinazolin-7-yl)-2-amino-7-fluorobenzo[b]thiophene-3-carbonitrile]", "values": [{"measurement": "pIC50", "setting": "KRAS G12S", "value": "> 5.30"}, {"measurement": "pIC50", "setting": "KRAS G12D", "value": "> 5.30"}, {"measurement": "pIC50", "setting": "KRAS WT", "value": "> 5.30"}]}, {"smiles": "C[C@H](Oc1nc(N2CCC3(CCN3C(=O)[C@@H]3C[C@H]3C#N)C2)c2cc(Cl)c(-c3ccc(F)c4sc(N)c(C#N)c34)c(F)c2n1)[C@@H]1CCCN1C", "note": "(stereo partly drawn) [Compound 206, 2-amino-4-(6-chloro-4-(1-((1R,2R)-2-cyanocyclopropane-1-carbonyl)-1,6-diazaspiro[3.4]octan-6-yl)-8-fluoro-2-((S)-1-((S)-1-methylpyrrolidin-2-yl)ethoxy)quinazolin-7-yl)-7-fluorobenzo[b]thiophene-3-carbonitrile]", "values": [{"measurement": "pIC50", "setting": "KRAS G12S", "value": "> 5.30"}, {"measurement": "pIC50", "setting": "KRAS G12D", "value": "> 5.30"}, {"measurement": "pIC50", "setting": "KRAS WT", "value": "> 5.30"}]}, {"smiles": "COCC(=O)N1CCC12CCN(c1nc(O[C@@H](C)[C@@H]3CCCN3C)nc3c(F)c(-c4ccc(F)c5sc(N)c(C#N)c45)c(Cl)cc13)C2", "note": "(stereo partly drawn) [Compound 254, 2-amino-4-(6-chloro-8-fluoro-4-(1-(2-methoxyacetyl)-1,6-diazaspiro[3.4]octan-6-yl)-2-((S)-1-((S)-1-methylpyrrolidin-2-yl)ethoxy)quinazolin-7-yl)-7-fluorobenzo[b]thiophene-3-carbonitrile]", "values": [{"measurement": "pIC50", "setting": "KRAS G12S", "value": "> 5.30"}, {"measurement": "pIC50", "setting": "KRAS G12D", "value": "> 5.30"}, {"measurement": "pIC50", "setting": "KRAS WT", "value": "> 5.30"}]}, {"smiles": "N#Cc1c(N)sc2c(F)ccc(-c3c(Cl)cc4c(N5CCC6(CCN6C(=O)OC(CO)C(F)(F)F)C5)nc(OC[C@@]56CCCN5C[C@H](F)C6)nc4c3F)c12", "note": "(stereo partly drawn) [Compound 345, 1,1,1-trifluoro-3-hydroxypropan-2-yl 6-(7-(2-amino-3-cyano-7-fluorobenzo[b]thiophen-4-yl)-6-chloro-8-fluoro-2-(((2R,7aS)-2-fluorotetrahydro-1H-pyrrolizin-7a(5H)-yl)methoxy)quinazolin-4-yl)-1,6-diazaspiro[3.4]octane-1-carboxylate]", "values": [{"measurement": "pIC50", "setting": "KRAS G12S", "value": "> 5.30"}, {"measurement": "pIC50", "setting": "KRAS G12D", "value": "> 5.30"}, {"measurement": "pIC50", "setting": "KRAS WT", "value": "> 5.30"}]}, {"smiles": "Nc1nc2c(-c3ccc4c(N5CC6(CNCCN6)C5)nc(OC[C@@]56CCCN5C[C@H](F)C6)nc4c3F)ccc(F)c2s1", "note": "[Compound 253, 7-fluoro-4-(8-fluoro-2-(((2R,7aS)-2-fluorotetrahydro-1H-pyrrolizin-7a(5H)-yl)methoxy)-4-(2,5,8-triazaspiro[3.5]nonan-2-yl)quinazolin-7-yl)benzo[d]thiazol-2-amine]", "values": [{"measurement": "pIC50", "setting": "KRAS G12S", "value": "< 5.30"}, {"measurement": "pIC50", "setting": "KRAS G12D", "value": "< 5.30"}, {"measurement": "pIC50", "setting": "KRAS WT", "value": "> 5.30"}]}, {"smiles": "N#Cc1cnn(C(=O)N2CCC23CCN(c2nc(OC[C@@]45CCCN4C[C@H](F)C5)nc4c(F)c(-c5ccc(F)c6sc(N)c(C#N)c56)c(Cl)cc24)C3)c1", "note": "(stereo partly drawn) [Compound 309, 1-(6-(7-(2-amino-3-cyano-7-fluorobenzo[b]thiophen-4-yl)-6-chloro-8-fluoro-2-(((2R,7aS)-2-fluorotetrahydro-1H-pyrrolizin-7a(5H)-yl)methoxy)quinazolin-4-yl)-1,6-diazaspiro[3.4]octane-1-carbonyl)-1H-pyrazole-4-carbonitrile]", "values": [{"measurement": "pIC50", "setting": "KRAS G12S", "value": "> 5.30"}, {"measurement": "pIC50", "setting": "KRAS G12D", "value": "> 5.30"}, {"measurement": "pIC50", "setting": "KRAS WT", "value": "> 5.30"}]}, {"smiles": "N#Cc1c(N)sc2c(F)ccc(-c3c(Cl)cc4c(N5CC6(CCN6C(=O)n6cnc(Cl)n6)CC5C(F)F)nc(OC[C@@]56CCCN5C[C@H](F)C6)nc4c3F)c12", "note": "(stereo partly drawn) [Compound 323, 2-amino-4-(6-chloro-4-(1-(3-chloro-1H-1,2,4-triazole-1-carbonyl)-7-(difluoromethyl)-1,6-diazaspiro[3.4]octan-6-yl)-8-fluoro-2-(((2R,7aS)-2-fluorotetrahydro-1H-pyrrolizin-7a(5H)-yl)methoxy)quinazolin-7-yl)-7-fluorobenzo[b]thiophene-3-carbonitrile]", "values": [{"measurement": "pIC50", "setting": "KRAS G12S", "value": "> 5.30"}, {"measurement": "pIC50", "setting": "KRAS G12D", "value": "< 5.30"}, {"measurement": "pIC50", "setting": "KRAS WT", "value": "< 5.30"}]}, {"smiles": "N#Cc1c(N)sc2c(F)ccc(-c3c(Cl)cc4c(N5CCC6(CCN6C(=O)n6cnnn6)C5)nc(OC[C@@]56CCCN5C[C@H](F)C6)nc4c3F)c12", "note": "(stereo partly drawn) [Compound 293, 4-(4-(1-(1H-tetrazole-1-carbonyl)-1,6-diazaspiro[3.4]octan-6-yl)-6-chloro-8-fluoro-2-(((2R,7aS)-2-fluorotetrahydro-1H-pyrrolizin-7a(5H)-yl)methoxy)quinazolin-7-yl)-2-amino-7-fluorobenzo[b]thiophene-3-carbonitrile]", "values": [{"measurement": "pIC50", "setting": "KRAS G12S", "value": "> 5.30"}, {"measurement": "pIC50", "setting": "KRAS G12D", "value": "> 5.30"}, {"measurement": "pIC50", "setting": "KRAS WT", "value": "> 5.30"}]}, {"smiles": "CN(C)CC1(COc2nc(N3CCC4(CCN4C(=O)n4cncn4)C3)c3cc(Cl)c(-c4ccc(F)c5sc(N)c(C#N)c45)c(F)c3n2)CC1", "note": "(stereo not drawn) [Compound 315, 4-(4-(1-(1H-1,2,4-triazole-1-carbonyl)-1,6-diazaspiro[3.4]octan-6-yl)-6-chloro-2-((1-((dimethylamino)methyl)cyclopropyl)methoxy)-8-fluoroquinazolin-7-yl)-2-amino-7-fluorobenzo[b]thiophene-3-carbonitrile]", "values": [{"measurement": "pIC50", "setting": "KRAS G12S", "value": "> 5.30"}, {"measurement": "pIC50", "setting": "KRAS G12D", "value": "> 5.30"}, {"measurement": "pIC50", "setting": "KRAS WT", "value": "> 5.30"}]}]}
